Measurements published in patent US9637472B2, “Substituted 6,5-fused bicyclic heteroaryl compounds” (Epizyme, Inc., priority 2011, dated 2017).
Like-named read-outs stand apart in the source and are kept apart here.

Biological target: EZH2 (Homo sapiens (Human), UniProt Q15910)
Assay: PRC2 enzyme assay on peptide substrates
Type: biochemical
[1] = PRC2 enzyme assays on peptide substrates, 4 nM enzyme, 30 min preincubation at 25° C., read-out: EZH2 IC50

Sequence of EZH2 (Q15910 other isoform, or with tags, fused parts or gaps): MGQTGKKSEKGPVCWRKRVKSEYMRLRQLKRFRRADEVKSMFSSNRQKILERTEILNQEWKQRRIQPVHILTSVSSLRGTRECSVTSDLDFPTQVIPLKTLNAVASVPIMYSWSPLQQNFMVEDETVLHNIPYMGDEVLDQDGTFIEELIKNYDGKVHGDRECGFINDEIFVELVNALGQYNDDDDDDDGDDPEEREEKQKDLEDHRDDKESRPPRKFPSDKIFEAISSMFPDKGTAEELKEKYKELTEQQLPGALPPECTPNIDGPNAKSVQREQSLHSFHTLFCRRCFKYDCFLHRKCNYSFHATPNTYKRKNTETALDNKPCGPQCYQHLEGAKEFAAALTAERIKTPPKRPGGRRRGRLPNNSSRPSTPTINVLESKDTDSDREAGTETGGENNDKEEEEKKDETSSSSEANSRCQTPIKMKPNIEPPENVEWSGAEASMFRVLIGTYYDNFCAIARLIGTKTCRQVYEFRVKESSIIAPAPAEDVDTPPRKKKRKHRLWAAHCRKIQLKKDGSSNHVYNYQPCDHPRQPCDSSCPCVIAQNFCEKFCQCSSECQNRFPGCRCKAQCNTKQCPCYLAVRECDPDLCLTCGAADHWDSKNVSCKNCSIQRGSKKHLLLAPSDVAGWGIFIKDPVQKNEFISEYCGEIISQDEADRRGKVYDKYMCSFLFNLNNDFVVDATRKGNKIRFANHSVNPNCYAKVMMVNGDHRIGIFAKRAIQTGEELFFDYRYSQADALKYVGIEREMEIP
Sequence of EZH2 (O75530 whole entry partner): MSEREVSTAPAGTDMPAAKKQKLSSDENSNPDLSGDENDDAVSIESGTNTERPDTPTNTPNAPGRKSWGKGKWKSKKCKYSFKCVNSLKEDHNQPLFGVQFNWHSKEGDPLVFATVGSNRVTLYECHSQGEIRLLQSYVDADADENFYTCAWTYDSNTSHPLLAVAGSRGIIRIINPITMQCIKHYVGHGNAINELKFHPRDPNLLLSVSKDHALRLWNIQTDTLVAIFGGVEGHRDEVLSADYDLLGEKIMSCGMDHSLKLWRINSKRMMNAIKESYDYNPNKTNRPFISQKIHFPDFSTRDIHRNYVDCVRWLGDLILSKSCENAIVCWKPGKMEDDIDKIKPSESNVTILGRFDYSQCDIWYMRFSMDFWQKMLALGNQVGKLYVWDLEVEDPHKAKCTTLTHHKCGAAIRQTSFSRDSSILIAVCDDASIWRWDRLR
Sequence of EZH2 (Q15022 whole entry partner): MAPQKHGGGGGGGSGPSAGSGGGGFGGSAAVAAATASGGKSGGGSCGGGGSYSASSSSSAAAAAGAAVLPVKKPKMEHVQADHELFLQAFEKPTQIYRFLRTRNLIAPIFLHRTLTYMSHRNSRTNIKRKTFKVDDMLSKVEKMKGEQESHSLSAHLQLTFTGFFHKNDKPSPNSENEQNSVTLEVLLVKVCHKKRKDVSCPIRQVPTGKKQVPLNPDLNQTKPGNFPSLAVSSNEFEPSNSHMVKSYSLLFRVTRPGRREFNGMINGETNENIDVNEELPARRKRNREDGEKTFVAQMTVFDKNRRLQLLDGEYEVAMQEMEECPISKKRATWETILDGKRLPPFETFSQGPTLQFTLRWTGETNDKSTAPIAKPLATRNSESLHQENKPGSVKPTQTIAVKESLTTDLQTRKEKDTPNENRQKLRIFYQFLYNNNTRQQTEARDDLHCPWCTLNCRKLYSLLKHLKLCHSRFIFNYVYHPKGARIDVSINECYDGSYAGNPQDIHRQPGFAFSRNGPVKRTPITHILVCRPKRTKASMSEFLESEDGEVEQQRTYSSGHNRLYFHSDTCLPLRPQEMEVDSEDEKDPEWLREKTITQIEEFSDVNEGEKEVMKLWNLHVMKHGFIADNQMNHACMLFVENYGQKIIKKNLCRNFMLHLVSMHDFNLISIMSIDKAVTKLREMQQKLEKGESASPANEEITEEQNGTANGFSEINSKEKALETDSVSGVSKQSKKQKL
Sequence of EZH2 (Q09028 whole entry partner): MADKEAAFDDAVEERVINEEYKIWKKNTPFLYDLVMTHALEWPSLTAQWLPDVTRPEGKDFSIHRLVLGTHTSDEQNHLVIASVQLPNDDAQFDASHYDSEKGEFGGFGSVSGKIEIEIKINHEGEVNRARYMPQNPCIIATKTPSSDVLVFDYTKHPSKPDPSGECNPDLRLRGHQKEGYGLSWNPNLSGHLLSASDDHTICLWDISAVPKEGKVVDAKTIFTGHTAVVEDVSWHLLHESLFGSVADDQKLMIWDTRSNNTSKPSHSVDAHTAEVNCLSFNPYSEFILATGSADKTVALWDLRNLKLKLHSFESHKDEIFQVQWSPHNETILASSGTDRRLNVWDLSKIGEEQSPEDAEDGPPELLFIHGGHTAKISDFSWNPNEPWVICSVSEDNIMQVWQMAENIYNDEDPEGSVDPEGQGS

Structure (SMILES)	IC50 [1] [nM]	IC50 [nM]
Cc1cc(C)c(CNC(=O)c2cc(C3=CCN(C(=O)C4CCCN(C)C4)CC3)nc3c2cnn3C(C)C)c(=O)[nH]1 (stereo not shown) [Compound B-32, N-((4,6-dimethyl-2-oxo-1,2-dihydropyridin-3-yl)methyl)-1-isopropyl-6-(1-(1-methylpiperidine-3-carbonyl)-1,2,3,6-tetrahydropyridin-4-yl)-1H-pyrazolo[3,4-b]pyridine-4-carboxamide]	< 300	
CC(C)n1ncc2c(C(=O)NCc3cc4c([nH]c3=O)CCNC4)cc(-c3ccc4c(c3)OCCO4)nc21 [Compound A-71]	10000 to 50000	
Cc1cc(C)c(CNC(=O)c2cc(C3CCN(C(=O)CN)CC3)nc3c2cnn3C(C)C)c(=O)[nH]1 [Compound B-79]	300 to 1000	
COc1cc(C(=O)NCc2c(C)cc(C)[nH]c2=O)c2cnn(C(C)C)c2n1 [Compound B-118]	1000 to 3000	
Cc1cc(C)c(CNC(=O)c2cc(C3=CC(C)(C)NC(C)(C)C3)nc3c2cnn3C2CCN(C)CC2)c(=O)[nH]1 [Compound B-116]	1000 to 3000	
Cc1cc(C)c(CNC(=O)c2cc(Br)cc3c2cnn3C2CCN(C3CCN(C)CC3)CC2)c(=O)[nH]1 [Compound D-16, 6-bromo-N-((4,6-dimethyl-2-oxo-1,2-dihydropyridin-3-yl)methyl)-1-(1′-methyl-[1,4′-bipiperidin]-4-yl)-1H-indazole-4-carboxamide]	< 300	
Cc1cc(C)c(CNC(=O)c2cc(-c3cccc(CO)c3)cc3c2cnn3C2CCCC2)c(=O)[nH]1 [Compound C-8, 1-cyclopentyl-N-((4,6-dimethyl-2-oxo-1,2-dihydropyridine-3-yl)methyl)-6-(3-(hydroxymethyl)phenyl)-1H-indazole-4-carboxamide]	300 to 1000	
Cc1cc(C)c(CNC(=O)c2cc(N3CCCCC3)nc3c2cnn3C(C)C)c(=O)[nH]1 [Compound B-115]	1000 to 3000	
Cc1cc(C)c(CNC(=O)c2cc(-c3ccc(COCCN4CCOCC4)cc3)cc3c2cnn3C2CCCC2)c(=O)[nH]1 [Compound C-20]	< 300	
Cc1cc(C)c(CNC(=O)c2cc(C3CCN(C4CCNCC4)CC3)nc3c2cnn3C(C)C)c(=O)[nH]1 [Compound B-29, 6-([1,4′-bipiperidin]-4-yl)-N-((4,6-dimethyl-2-oxo-1,2-dihydropyridin-3-yl)methyl)-1-isopropyl-1H-pyrazolo[3,4-b]pyridine-4-carboxamide]	< 300	
Cc1cc(C)c(CNC(=O)c2cc(-c3ccc(C)c(S(N)(=O)=O)c3)cc3c2cnn3C2CCCC2)c(=O)[nH]1 [Compound C-16]	< 300	
Cc1cc(C)c(CNC(=O)c2cc(C3=CCN(S(C)(=O)=O)CC3)nc3c2cnn3C(C)C)c(=O)[nH]1 [Compound B-99]	1000 to 3000	
Cc1cc(C)c(CNC(=O)c2cc(C3=CCN(C)CC3)nc3c2cnn3C(C)C)c(=O)[nH]1 [Compound B-75]		300 to 1000
Cc1cc(C)n(C)c(=O)c1CNC(=O)c1cc(-c2cccc(CN(C)CCN(C)C)c2)nc2c1CNN2C(C)C [Compound A-74]	10000 to 50000	
Cc1cc(C)c(CNC(=O)c2cc(-c3cccc(C(=O)NCCCN(C)C)c3)nc3c2cnn3C(C)C)c(=O)[nH]1 [Compound A-13, N-((4,6-dimethyl-2-oxo-1,2-dihydropyridin-3-yl)methyl)-6-(3-((3-(dimethylamino)propyl)carbamoyl)phenyl)-1-isopropyl-1H-pyrazolo[3,4-b]pyridine-4-carboxamide]	< 300	
Cc1cc(C)c(CNC(=O)c2cc(C(=O)N3CCN(C)CC3)nc3c2cnn3C(C)C)c(=O)[nH]1 [Compound B-138]	3000 to 10000	
Cc1cc(C)c(CNC(=O)c2cc(N3CCC(N4CCN(C)CC4)CC3)nc3c2cnn3C(C)C)c(=O)[nH]1 [Compound B-106]	1000 to 3000	
Cc1cc(CN(C)C)c(CNC(=O)c2cc(-c3ccc(CN4CCOCC4)cc3)cc3c2cnn3C2CCCC2)c(=O)[nH]1 [Compound C-26]	< 300	
Cc1cc(C)c(CNC(=O)c2cc(-c3ccc(N4CCN(C(=O)OC(C)(C)C)CC4)cc3)nc3c2cnn3C(C)C)c(=O)[nH]1 [Compound A-51]	1000 to 3000	
Cc1cc(C)c(CNC(=O)c2cc(-c3cccc(CN(C)CCN)c3)nc3c2cnn3C(C)C)c(=O)[nH]1 [Compound A-34]	300 to 1000	

Structure (SMILES)	IC50 [1] [nM]	IC50 [nM]
Cc1cc(C)c(CNC(=O)c2cc(-c3ccccc3CNC(=O)OC(C)(C)C)nc3c2cnn3C(C)C)c(=O)[nH]1 [Compound A-98]	10000 to 50000	
Cc1cc(C)c(CNC(=O)c2cc(N(C)CCN(C)C)nc3c2cnn3C(C)C)c(=O)[nH]1 [Compound B-135]	3000 to 10000	
CCc1ccc(CNC(=O)c2cc(-c3ccc4c(c3)OCCO4)nc3c2cnn3C(C)C)c(=O)[nH]1 [Compound A-110]	10000 to 50000	
CNCCCOc1ccc(-c2cc(C(=O)NCc3c(C)cc(C)[nH]c3=O)c3cnn(C4CCCC4)c3c2)cc1 [Compound C-12, 1-cyclopentyl-N-((4,6-dimethyl-2-oxo-1,2-dihydropyridin-3-yl)methyl)-6-(4-(3-(methylamino)propoxy)phenyl)-1H-indazole-4-carboxamide]	< 300	
Cc1cc(C)c(CNC(=O)c2cc(C3=CCN(C(=O)CN(C)C)CC3)nc3c2cnn3C(C)C)c(=O)[nH]1 [Compound B-53]	300 to 1000	
Cc1cc(C)c(CNC(=O)c2cc(C(=O)N(C)C)nc3c2cnn3C(C)C)c(=O)[nH]1 [Compound B-141]	3000 to 10000	
Cc1cc(C)c(CNC(=O)c2cc(C3=CC(C)(C)NC(C)(C)C3)cc3c2cnn3C2CCCC2)c(=O)[nH]1 [Compound D-2, 1-cyclopentyl-N-((4,6-dimethyl-2-oxo-1,2-dihydropyridin-3-yl)methyl)-6-(2,2,6,6-tetramethyl-1,2,3,6-tetrahydropyridin-4-yl)-1H-indazole-4-carboxamide]	< 300	
Cc1cc(C)c(CNC(=O)c2cc(C3=CC(C)(C)NC(C)(C)C3)nc3c2cnn3CCN(C)C)c(=O)[nH]1 [Compound B-152]	10000 to 50000	
Cc1cc(C)c(CNC(=O)c2cccc3c2cnn3C(C)C)c(=O)[nH]1 [Compound D-71]	1000 to 3000	
Cc1cc(C)c(CNC(=O)c2cc(-c3cccnc3N3CCNCC3)nc3c2cnn3C(C)C)c(=O)[nH]1 [Compound A-66]	1000 to 3000	
Cc1cc(C)c(CNC(=O)c2cc(Cl)cc3c2cnn3C2CCN(C(=O)C(C)(C)C)CC2)c(=O)[nH]1 [Compound D-24]	< 300	
Cc1cc(C)c(CNC(=O)c2cc(C=O)cc3c2cnn3C2CCCC2)c(=O)[nH]1 [Compound D-43]	< 300	
C=Cc1cc(C(=O)NCc2c(C)cc(C)[nH]c2=O)c2cnn(C(C)C)c2n1 [Compound B-97]	1000 to 3000	
CC(=O)N1CCC(n2ncc3c(C(=O)NCc4c(C)cc(C)[nH]c4=O)cc(C4=CC(C)(C)NC(C)(C)C4)nc32)CC1 [Compound B-2, 1-(1-acetylpiperidin-4-yl)-N-((4,6-dimethyl-2-oxo-1,2-dihydropyridin-3-yl)methyl)-6-(2,2,6,6-tetramethyl-1,2,3,6-tetrahydropyridin-4-yl)-1H-pyrazolo[3,4-b]pyridine-4-carboxamide]	300 to 1000	
CC1=CC(C)=C(CNC(=O)c2cc(-c3cccc(CNCCCN(C)C)c3)nc3c2cnn3C(C)C)C(C)N1 (stereo not shown) [Compound A-125]	1000 to 3000	
Cc1cc(C)c(CNC(=O)c2cc(N3CCCC3)nc3c2cnn3C(C)C)c(=O)[nH]1 [Compound B-123]	3000 to 10000	
Cc1ccc(CNC(=O)c2cc(-c3cccc(CN4CCN(C)CC4)c3)nc3c2cnn3C(C)C)c(=O)[nH]1 [Compound A-100]	10000 to 50000	
Cc1cc(C)c(CNC(=O)c2cc(N3CCNCC3)nc3c2cnn3C(C)C)c(=O)[nH]1 [Compound B-92]	1000 to 3000	
Cc1cc(C)c(CNC(=O)c2cc(Br)nc3c2cnn3C(C)C)c(=O)[nH]1 [Compound B-88]	1000 to 3000	
CC(=O)N1CCC(c2cc(C(=O)NCc3c(C)cc(C)[nH]c3=O)c3cnn(C(C)C)c3n2)CC1 [Compound B-78]	300 to 1000	
